According to patent publication US11697648B2, “Fused pyrimidine pyridinone compounds as JAK inhibitors” (THERAVANCE BIOPHARMA R&D IP, LLC, priority 2019, dated 2023):

How the values were obtained:
[1] = system: IL-2 stimulated STAT5 phosphorylation in Tall-1 human T cell line (JAK3); assay: Cellular JAK3 potency assay: inhibition of IL-2 stimulated pSTAT5 in Tall-1 T cells; format: cell-based
Description: Assay 2: Cellular JAK3 Potency Assay: Inhibition of IL-2 Stimulated pSTAT5 in Tall-1 T Cells
The potency of test compounds for inhibition of interleukin-2 (IL-2) stimulated STAT5 phosphorylation was measured in the Tall-1 human T cell line (DSMZ) using AlphaLisa. Because IL-2 signals through JAK3, this assay provides a measure of JAK3 cellular potency.
Phosphorylated STAT5 was measured via the AlphaLISA SureFire Ultra pSTAT5 (Tyr694/699) kit (PerkinElmer).
Human T cells from the Tall-1 cell line were cultured in a 37° C., 5% CO2 humidified incubator in RPMI (Life Technologies) supplemented with 15% Heat Inactivated Fetal Bovine Serum (FBS, Life Technologies), 2 mM Glutamax (Life Technologies), 25 mM HEPES (Life Technologies) and 1× Pen/Strep (Life Technologies). Compounds were serially diluted in DMSO and dispensed acoustically to empty wells. Assay media (phenol red-free DMEM (Life Technologies) supplemented with 10% FBS (ATCC)) was dispensed (4 μL/well) and plates shaken at 900 rpm for 10 inns. Cells were seeded at 45,000 cells/well in assay media (4 μL/well), and incubated at 37° C., 5% CO2 for 1 hour, followed by the addition of IL-2 (R&D Systems; final concentration 300 ng/ml) in pre-warmed assay media (4 μL) for 30 minutes. After cytokine stimulation, cells were lysed with 6 ul of 3× AlphaLisa Lysis Buffer (PerkinElmer) containing 1× PhosStop and Complete tablets (Roche). The lysate was shaken at 900 rpm for 10 minutes at room temperature (RT). Phosphorylated STAT5 was measured via the pSTAT5 AlphaLisa kit (PerkinElmer). Freshly prepared acceptor bead mixture was dispensed onto lysate (5 μL) under green filtered <100 lux light. Plates were shaken at 900 rpm for 2 mins, briefly spun down, and incubated for 2 hrs at RT in the dark. Donor beads were dispensed (5 μL) under green filtered <100 lux light. Plates were shaken at 900 rpm for 2 minutes, briefly spun down, and incubated overnight at RT in the dark. Luminescence was measured with excitation at 689 nm and emission at 570 nm using an EnVision plate reader (PerkinElmer) under green filtered <100 lux light.
To determine the inhibitory potency of test compounds in response to IL-2, the average emission intensity of beads bound to pSTAT5 was measured in a human T cell line. IC50 values were determined from analysis of the inhibition curves of signal intensity versus compound concentration. Data are expressed as pIC50 (negative decadic logarithm IC50) values (mean standard deviation).

JAK1 = JAK1 (Homo sapiens (Human), UniProt P23458); assay: Biochemical JAK1 kinase assay (LanthaScreen)
Description: (§1) Assay 1: Biochemical JAK and Tyk2 Kinase Assays
(§2) A panel of four LanthaScreen JAK biochemical assays (JAK1, 2, 3 and Tyk2) were carried in a common kinase reaction buffer (50 mM HEPES, pH 7.5, 0.01% Brij-35, 10 mM MgCl2, and 1 mM EGTA). Recombinant GST-tagged JAK enzymes and a GFP-tagged STAT1 peptide substrate were obtained from Life Technologies.
(§3) Serially or discretely diluted compounds were pre-incubated with each of the four JAK enzymes and the substrate in white 384-well microplates (Corning) at ambient temperature for 1 h. ATP was subsequently added to initiate the kinase reactions in 10 μL total volume, with 1% DMSO. […] Kinase reactions were allowed to proceed for 1 hour at ambient temperature before a 10 μL preparation of EDTA (10 mM final concentration) and Tb-anti-pSTAT1 (pTyr701) antibody (Life Technologies, 2 nM final concentration) in TR-FRET dilution buffer (Life Technologies) was added. The plates were allowed to incubate at ambient temperature for 1 h before being read on the EnVision reader (Perkin Elmer). Emission ratio signals (520 nm/495 nm) were recorded and utilized to calculate the percent inhibition values based on DMSO and background controls.
(§4) For dose-response analysis, percent inhibition data were plotted vs. compound concentrations, and IC50 values were determined from a 4-parameter robust fit model with the Prism software (GraphPad Software). Results were expressed as pIC50 (negative logarithm of IC50) and subsequently converted to pKi (negative logarithm of dissociation constant, Ki) using the Cheng-Prusoff equation.

JAK3 = JAK3 (Homo sapiens (Human), UniProt P52333); assay: Biochemical JAK3 kinase assay (LanthaScreen)
Description: as §1, §2, §3, §4

[2] = IL-2 stimulated pSTAT5, Tall-1 T cells
[3] = selectivity JAK3 over JAK1, difference of pKi
[4] = IL-2 stimulated pSTAT5 in Tall-1 T cells
[5] = selectivity, difference of pKi values

Chain of JAK1 (P23458 whole entry): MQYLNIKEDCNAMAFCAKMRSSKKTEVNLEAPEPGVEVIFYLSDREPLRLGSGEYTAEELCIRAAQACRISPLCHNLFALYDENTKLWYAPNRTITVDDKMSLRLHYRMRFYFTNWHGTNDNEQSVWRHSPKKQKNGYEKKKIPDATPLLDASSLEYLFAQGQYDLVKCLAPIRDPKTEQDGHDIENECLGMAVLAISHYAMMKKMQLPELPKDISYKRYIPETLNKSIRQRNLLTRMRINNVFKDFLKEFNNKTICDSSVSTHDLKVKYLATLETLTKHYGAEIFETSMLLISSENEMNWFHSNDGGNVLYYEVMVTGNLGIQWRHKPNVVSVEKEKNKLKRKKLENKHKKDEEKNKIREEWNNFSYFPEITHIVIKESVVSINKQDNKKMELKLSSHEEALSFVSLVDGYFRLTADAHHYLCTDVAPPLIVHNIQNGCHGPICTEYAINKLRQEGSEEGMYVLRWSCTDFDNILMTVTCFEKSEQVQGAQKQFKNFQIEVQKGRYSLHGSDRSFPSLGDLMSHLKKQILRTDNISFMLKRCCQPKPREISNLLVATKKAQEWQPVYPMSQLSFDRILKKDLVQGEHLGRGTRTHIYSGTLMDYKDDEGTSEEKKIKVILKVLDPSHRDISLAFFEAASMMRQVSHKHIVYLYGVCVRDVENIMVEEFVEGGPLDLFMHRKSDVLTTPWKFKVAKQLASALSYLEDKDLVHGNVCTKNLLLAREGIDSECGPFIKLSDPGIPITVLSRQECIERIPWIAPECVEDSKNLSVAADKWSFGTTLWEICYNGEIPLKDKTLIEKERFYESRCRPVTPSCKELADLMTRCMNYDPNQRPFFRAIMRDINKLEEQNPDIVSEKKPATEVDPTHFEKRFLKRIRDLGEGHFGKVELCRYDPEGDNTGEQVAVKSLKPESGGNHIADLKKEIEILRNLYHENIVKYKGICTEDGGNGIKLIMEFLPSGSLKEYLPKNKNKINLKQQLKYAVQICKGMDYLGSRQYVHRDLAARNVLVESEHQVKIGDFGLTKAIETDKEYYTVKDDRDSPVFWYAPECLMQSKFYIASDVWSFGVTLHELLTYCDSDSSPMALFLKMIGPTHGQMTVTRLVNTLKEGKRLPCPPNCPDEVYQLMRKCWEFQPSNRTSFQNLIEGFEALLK
Chain of JAK3 (P52333 whole entry): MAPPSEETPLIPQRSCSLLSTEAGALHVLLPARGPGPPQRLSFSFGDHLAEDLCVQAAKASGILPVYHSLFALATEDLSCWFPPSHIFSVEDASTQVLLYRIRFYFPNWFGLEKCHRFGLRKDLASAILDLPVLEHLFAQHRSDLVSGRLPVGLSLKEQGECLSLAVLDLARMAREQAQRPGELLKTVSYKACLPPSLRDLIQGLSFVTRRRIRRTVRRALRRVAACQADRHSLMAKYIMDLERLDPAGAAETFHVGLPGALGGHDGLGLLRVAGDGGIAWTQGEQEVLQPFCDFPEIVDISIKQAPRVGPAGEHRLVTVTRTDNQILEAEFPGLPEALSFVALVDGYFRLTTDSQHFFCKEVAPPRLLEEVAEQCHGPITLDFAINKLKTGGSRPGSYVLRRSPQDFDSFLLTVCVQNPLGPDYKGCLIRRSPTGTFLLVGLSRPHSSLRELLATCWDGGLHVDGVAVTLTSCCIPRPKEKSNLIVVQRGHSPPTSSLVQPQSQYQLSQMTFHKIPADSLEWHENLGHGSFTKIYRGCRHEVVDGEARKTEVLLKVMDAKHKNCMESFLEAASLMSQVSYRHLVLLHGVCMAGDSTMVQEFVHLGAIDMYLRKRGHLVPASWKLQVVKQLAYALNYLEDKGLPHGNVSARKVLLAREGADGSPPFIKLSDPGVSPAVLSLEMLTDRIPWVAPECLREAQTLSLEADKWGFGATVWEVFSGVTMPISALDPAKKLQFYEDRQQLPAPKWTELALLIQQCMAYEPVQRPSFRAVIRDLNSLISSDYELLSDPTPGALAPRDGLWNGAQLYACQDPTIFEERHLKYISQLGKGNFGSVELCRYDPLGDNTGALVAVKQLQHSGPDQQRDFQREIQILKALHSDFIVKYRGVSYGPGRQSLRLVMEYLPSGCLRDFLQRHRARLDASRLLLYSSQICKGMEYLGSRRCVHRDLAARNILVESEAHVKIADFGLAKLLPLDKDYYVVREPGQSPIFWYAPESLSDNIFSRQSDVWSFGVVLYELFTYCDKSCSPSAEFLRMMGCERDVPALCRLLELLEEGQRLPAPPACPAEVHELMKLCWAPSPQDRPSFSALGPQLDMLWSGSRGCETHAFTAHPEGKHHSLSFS

Row | Structure (SMILES) | Tall-1 (pIC50) [1, 2] | JAK 1 (pKi) (JAK1) | JAK 3 (pKi) (JAK3) | JAK3 (pKi)-JAK1 (pKi) (JAK3; [3]) | Tall-1 (pIC50) [1, 4] | JAK3 (pKi)-JAK1 (pKi) (JAK3; [5])
1 | C=CC(=O)N1CCN(CCn2c(=O)ccc3cnc(Nc4ccc(N5CCN(C6CC6)CC5)cc4)nc32)CC1 [Example 50] | C (C represents a pIC50 value between 6 and 6.7 (IC50 between 1 μM and 200 nM)) | E (E represents a pKi value of 7 or below (Ki of 100 nM or above)) | B (B represents pKi value between 9 and 10 (Ki between 1 nM and 0.1 nM)) | A (A represents a value of 3 or above) | – | –
2 | C=CC(=O)N1CCN(CCn2c(=O)ccc3cnc(Nc4ccn(CC)n4)nc32)[C@@H](C)C1 [Example 255] | – | E (E represents a pKi value of 7 or below (Ki of 100 nM or above)) | B (B represents pKi value between 9 and 10 (Ki between 1 nM and 0.1 nM)) | – | C (C represents a pIC50 value between 6 and 6.7 (IC50 between 1 μM and 200 nM)) | A (A represents a value of 3 or above)
3 | C=CC(=O)N1CCN(C(C)Cn2c(=O)ccc3cnc(Nc4ccc(N5CCN(C)CC5)cc4)nc32)CC1 (stereo not shown) [Example 218] | C (C represents a pIC50 value between 6 and 6.7 (IC50 between 1 μM and 200 nM)) | E (E represents a pKi value of 7 or below (Ki of 100 nM or above)) | C (C represents a pKi value between 8 and 9 (Ki between 10 nM and 1 nM)) | B (B represents a value of 2.5 to 3) | – | –
4 | C=CC(=O)N1CCN(CCn2c(=O)ccc3cnc(Nc4cnn(C)c4)nc32)[C@@H](CC#N)C1 [Example 261] | – | E (E represents a pKi value of 7 or below (Ki of 100 nM or above)) | B (B represents pKi value between 9 and 10 (Ki between 1 nM and 0.1 nM)) | – | B (B represents a pC50 value between 6.7 (included) and 7.5 (IC50 between 200 nM and 32 nM)) | A (A represents a value of 3 or above)
5 | C=CC(=O)N1CC(CCn2c(=O)ccc3cnc(Nc4ccc(N5C[C@@H](C)N(C)[C@H](C)C5)cc4)nc32)C1 [Example 264] | – | E (E represents a pKi value of 7 or below (Ki of 100 nM or above)) | B (B represents pKi value between 9 and 10 (Ki between 1 nM and 0.1 nM)) | – | A (A represents a pIC50 value≥7.5 (IC50≤32 nM)) | A (A represents a value of 3 or above)
6 | C=CC(=O)N1CC(CCn2c(=O)ccc3cnc(Nc4ccn(CC)n4)nc32)C1 [Example 254] | – | E (E represents a pKi value of 7 or below (Ki of 100 nM or above)) | B (B represents pKi value between 9 and 10 (Ki between 1 nM and 0.1 nM)) | – | B (B represents a pC50 value between 6.7 (included) and 7.5 (IC50 between 200 nM and 32 nM)) | A (A represents a value of 3 or above)
7 | C=CC(=O)N1CCN(CCn2c(=O)ccc3cnc(Nc4ccn(C(C)C)n4)nc32)[C@@H](C)C1 [Example 258] | – | E (E represents a pKi value of 7 or below (Ki of 100 nM or above)) | B (B represents pKi value between 9 and 10 (Ki between 1 nM and 0.1 nM)) | – | C (C represents a pIC50 value between 6 and 6.7 (IC50 between 1 μM and 200 nM)) | A (A represents a value of 3 or above)
8 | C=CC(=O)N1CC(CCn2c(=O)ccc3cnc(Nc4ccc(N5CCOCC5)cn4)nc32)C1 [Example 29] | C (C represents a pIC50 value between 6 and 6.7 (IC50 between 1 μM and 200 nM)) | E (E represents a pKi value of 7 or below (Ki of 100 nM or above)) | B (B represents pKi value between 9 and 10 (Ki between 1 nM and 0.1 nM)) | A (A represents a value of 3 or above) | – | –
9 | C=CC(=O)N1CCN(CCn2c(=O)ccc3cnc(Nc4ccc(N5C[C@@H](C)N(C)[C@H](C)C5)cc4)nc32)[C@@H](C)C1 [Example 199] | A (A represents a pIC50 value≥7.5 (IC50≤32 nM)) | E (E represents a pKi value of 7 or below (Ki of 100 nM or above)) | B (B represents pKi value between 9 and 10 (Ki between 1 nM and 0.1 nM)) | A (A represents a value of 3 or above) | – | –
10 | C=CC(=O)N1CCN(CCn2c(=O)ccc3cnc(Nc4cnn(C5CCN(C)CC5)c4)nc32)CC1 [Example 43] | C (C represents a pIC50 value between 6 and 6.7 (IC50 between 1 μM and 200 nM)) | E (E represents a pKi value of 7 or below (Ki of 100 nM or above)) | B (B represents pKi value between 9 and 10 (Ki between 1 nM and 0.1 nM)) | A (A represents a value of 3 or above) | – | –
11 | C=CC(=O)N1CC(CCn2c(=O)ccc3cnc(Nc4ccc(N5C[C@@H](C)N(C)C[C@@H]5C)cc4)nc32)C1 [Example 253] | – | E (E represents a pKi value of 7 or below (Ki of 100 nM or above)) | A (A represents a pKi value≥10 (Ki≤0.1 nM)) | – | B (B represents a pC50 value between 6.7 (included) and 7.5 (IC50 between 200 nM and 32 nM)) | A (A represents a value of 3 or above)
12 | C=CC(=O)N1CC(CCn2c(=O)ccc3cnc(Nc4ccn(C(C)C)n4)nc32)C1 [Example 257] | – | E (E represents a pKi value of 7 or below (Ki of 100 nM or above)) | B (B represents pKi value between 9 and 10 (Ki between 1 nM and 0.1 nM)) | – | B (B represents a pC50 value between 6.7 (included) and 7.5 (IC50 between 200 nM and 32 nM)) | A (A represents a value of 3 or above)
13 | C=CC(=O)N1CCN(CCn2c(=O)ccc3cnc(Nc4ccn(CC)n4)nc32)[C@@H](CC)C1 [Example 256] | – | E (E represents a pKi value of 7 or below (Ki of 100 nM or above)) | B (B represents pKi value between 9 and 10 (Ki between 1 nM and 0.1 nM)) | – | C (C represents a pIC50 value between 6 and 6.7 (IC50 between 1 μM and 200 nM)) | A (A represents a value of 3 or above)
14 | C=CC(=O)N1CCN(CCn2c(=O)ccc3cnc(Nc4ccc(N5C[C@@H](C)N(C)[C@@H](C)C5)cc4)nc32)[C@@H](CC)C1 [Example 222] | A (A represents a pIC50 value≥7.5 (IC50≤32 nM)) | E (E represents a pKi value of 7 or below (Ki of 100 nM or above)) | B (B represents pKi value between 9 and 10 (Ki between 1 nM and 0.1 nM)) | A (A represents a value of 3 or above) | – | –
15 | C=CC(=O)N1CCN(CCn2c(=O)ccc3cnc(Nc4ccc(N5CCOCC5)c(F)c4)nc32)CC1 [Example 41] | C (C represents a pIC50 value between 6 and 6.7 (IC50 between 1 μM and 200 nM)) | E (E represents a pKi value of 7 or below (Ki of 100 nM or above)) | B (B represents pKi value between 9 and 10 (Ki between 1 nM and 0.1 nM)) | A (A represents a value of 3 or above) | – | –
16 | C=CC(=O)N1CC(C)(CCn2c(=O)ccc3cnc(Nc4ccc(N5CCN(C)CC5)cc4)nc32)C1 [Example 260] | – | E (E represents a pKi value of 7 or below (Ki of 100 nM or above)) | B (B represents pKi value between 9 and 10 (Ki between 1 nM and 0.1 nM)) | – | A (A represents a pIC50 value≥7.5 (IC50≤32 nM)) | A (A represents a value of 3 or above)
